Data on 23 molecules can be found in US9540380B2, “Imidazotriazinone compounds” (Ironwood Pharmaceuticals, Inc., priority 2010, dated 2017).

T1 sequence (O76083 1-533 isoform O76083-2): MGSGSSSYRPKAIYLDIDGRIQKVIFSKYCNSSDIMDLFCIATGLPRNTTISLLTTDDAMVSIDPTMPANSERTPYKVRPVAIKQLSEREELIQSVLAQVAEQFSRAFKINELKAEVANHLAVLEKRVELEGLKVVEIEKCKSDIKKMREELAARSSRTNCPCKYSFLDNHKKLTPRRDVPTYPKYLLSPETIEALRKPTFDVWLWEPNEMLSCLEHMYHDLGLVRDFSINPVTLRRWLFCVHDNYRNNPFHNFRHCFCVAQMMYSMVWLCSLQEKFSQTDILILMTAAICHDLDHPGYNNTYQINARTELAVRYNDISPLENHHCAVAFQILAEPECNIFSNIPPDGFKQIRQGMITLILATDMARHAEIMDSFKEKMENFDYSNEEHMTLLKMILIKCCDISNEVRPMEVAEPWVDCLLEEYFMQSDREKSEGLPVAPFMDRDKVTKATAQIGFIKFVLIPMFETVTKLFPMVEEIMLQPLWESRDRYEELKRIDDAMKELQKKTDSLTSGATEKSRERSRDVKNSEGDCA

The first test has as its target T1, PDE9A2 (Homo sapiens, UniProt O76083).
T1 construct: purchased Reaction Biology Corporation, Malvern, Pa
Kind of test: Phosphodiesterase Enzyme Screening Assay, PDE9A2 (Caliper LabChip mobility-shift). The class given is biochemical. Conditions: 10 concentrations, 4.0 μM cGMP substrate, 1 hour at R.T.; read-out: Band (PDE9A2 IC50). The text has this:
(§1) Compounds of the invention were screened against PDE1A, PDE1B, PDE2A, PDE3A, PDE3B, PDE4A1A, PDE4B1, PDE4D3, PDE5A1, PDE6C, PDE7A, PDE8A1, PDE9A2, PDE10A2 AND PDE11A isoforms of the phosphodiesterase enzyme to determine activity and overall selectivity through comparative analysis. The assay generally consists of testing the compounds of the invention at 10 concentrations. Where 8-methoxy-IBMX and Zaprinast were used as reference inhibitors.
(§2) The phosphodiesterase enzyme isoforms were obtained from a commercial retailer (Reaction Biology Corporation, Malvern, Pa.) for use in the instant screening assay.
(§3) The analysis was completed using the Caliper LabChip 3000 and a 12-sipper LabChip. LabChip assays are separations-based, meaning that the product and substrate are electrophoretically separated, thereby minimizing interferences and yielding the highest data quality available on any screening platform. Z′ factors for both the EZ Reader and LC3000 enzymatic assays are routinely in the 0.8 to 0.9 range. High Z′ values, few false positives, few false negatives and analytical quality reproducibility are the reasons cited for the increasing reliance on the LabChip assays.
(§4) The off-chip incubation mobility-shift phosphodiesterase assay uses a microfluidic chip to measure the conversion of a fluorescent cyclic AMP substrate to a 5′-AMP product, or a cyclic GMP substrate to a 5′-GMP product. The reaction mixture, from a microtiter plate well, is introduced through a capillary sipper onto the chip, where the fluorescent substrate and product are separated by electrophoresis and detected via laser-induced fluorescence. […] The precision of microfluidics allows researchers to detect subtle interactions between drug candidates and therapeutic targets. The technology is able to detect both strong and weak inhibitors with high accuracy, and routinely identifies drug candidates that conventional techniques miss.
(§5) Reactions were carried out in 100 mM HEPES (pH 7.5), 5 mM MgCl2, 1 mM DTT, 0.003% Brij, 4.0 μM cGMP substrate. The reaction was started by addition of cGMP or cAMP and incubated for 1 hour at R.T. The reaction was terminated by the addition of stop buffer containing 100 mM HEPES (pH 7.5), 15 mM EDTA, 0.015% Brij-35, 5% DMSO. Cyclic AMP/GMP substrate and 5′-AMP/5′-GMP product were separated by charge using electrophoretic mobility shift. Product formed was compared to control wells to determine inhibition or enhancement of enzyme activity.
(§6) One or more reference compounds, depending on phosphodiesterase isoform, selected from 8-methoxy-IBMX, Zaprinast, Trequinsin, Pentoxifyline, Rolipram, and Vinpocetine, Dipyridamole, and BRL-50481 were run alongside client samples to ensure data quality. The resulting IC50 is compared against the historical average and must be within 3-fold of this average.
(§7) Data points were averages of quadruplicate wells and error bars represented the SEM for each point. IC50s were determined using GraphPad Prism Version 5.01 and the log (inhibitor) vs. response variable slope curve fit.
Turning to `C[C@@H]1CN(Cc2cn3ncccc3n2)C[C@H]1c1nn2c(C3CCOCC3)ncc2c(=O)[nH]1` (single isomer, unassigned) [(−)-2-((3,4-trans)-1-(imidazo[1,2-b]pyridazin-2-ylmethyl)-4-] [(−)-2-((3,4-trans)-1-(imidazo[1,2-b]pyridazin-2-ylmethyl)-4-methylpyrrolidin-3-yl)-7-(tetrahydro-2H-pyran-4-yl)imidazo[5,1-f][1,2,4]triazin-4(3H)-one], the IC50 (in general, the concentration needed to halve the response being measured) was less than 1000 nM.
Same read-out and setting: as for `C[C@@H]1CN(Cc2ccc3nccn3n2)C[C@H]1c1nn2c(C3CCOCC3)ncc2c(=O)[nH]1` (single isomer, unassigned) [(−)-2-((3,4-trans)-1-(imidazo[1,2-b]pyridazin-6-ylmethyl)-4-methylpyrrolidin-3-yl)-7-(tetrahydro-2H-pyran-4-yl)imidazo[5,1-f][1,2,4]triazin-4(3H)-one], the figure is less than 1000 nM; as for `CCS(=O)(=O)N1CCC(c2ncc3c(=O)[nH]c([C@@H]4CN(Cc5ccccc5)C[C@H]4C)nn23)CC1` (single isomer, unassigned) [(−)-2-((3,4-trans)-1-benzyl-4-methylpyrrolidin-3-yl)-7-(1-(ethylsulfonyl)piperidin-4-yl)imidazo[5,1-f][1,2,4]triazin-4(3H)-one], greater than 10000 nM.
On the same count and under the same terms, as for `C[C@@H]1CN(Cc2ccccc2)C[C@H]1c1nn2c(C(C)(C)O)ncc2c(=O)[nH]1` (single isomer, unassigned) [(−)-2-((3,4-trans)-1-benzyl-4-methylpyrrolidin-3-yl)-7-(2-hydroxypropan-2-yl)imidazo[5,1-f][1,2,4]triazin-4(3H)-one], the figure is greater than 10000 nM; as for `C[C@@H]1CN(Cc2ccccc2)C[C@H]1c1nn2c(C3CCC(F)(F)CC3)ncc2c(=O)[nH]1` (single isomer, unassigned) [(−)-2-((3,4-trans)-1-benzyl-4-methylpyrrolidin-3-yl)-7-(4,4-difluorocyclohexyl)imidazo[5,1-f][1,2,4]triazin-4(3H)-one], less than 1000 nM.
The same measure, in the same setting: in the case of `Cc1cc(F)ccc1-c1ncc2c(=O)[nH]c([C@@H]3CN(Cc4ccccc4)C[C@H]3C)nn12` (single isomer, unassigned) [(−)-2-((3,4-trans)-1-benzyl-4-methylpyrrolidin-3-yl)-7-(4-fluoro-2-methylphenyl)imidazo[5,1-f][1,2,4]triazin-4(3H)-one] it was greater than 10000 nM; in that of `Cc1ccc(Cl)cc1-c1ncc2c(=O)[nH]c([C@@H]3CN(Cc4ccccc4)C[C@H]3C)nn12` (single isomer, unassigned) [(−)-2-((3,4-trans)-1-benzyl-4-methylpyrrolidin-3-yl)-7-(5-chloro-2-methylphenyl)imidazo[5,1-f][1,2,4]triazin-4(3H)-one], 1000 to 10000 nM.
As to `C[C@@H]1CN(Cc2ccccc2)C[C@H]1c1nn2c(-c3ccoc3)ncc2c(=O)[nH]1` (single isomer, unassigned) [(−)-2-((3,4-trans)-1-benzyl-4-methylpyrrolidin-3-yl)-7-(furan-3-yl)imidazo[5,1-f][1,2,4]triazin-4(3H)-one], the IC50 fell in the range of 1000 to 10000 nM.
The same measure, in the same setting: as for `C[C@@H]1CN(Cc2cnccn2)C[C@H]1c1nn2c(C3CCOCC3)ncc2c(=O)[nH]1` (single isomer, unassigned) [(−)-2-((3,4-trans)-4-methyl-1-(pyrazin-2-ylmethyl)pyrrolidin-3-yl)-7-(tetrahydro-2H-pyran-4-yl)imidazo[5,1-f][1,2,4]triazin-4(3H)-one], the figure is 1000 to 10000 nM.
For the molecule `Cc1ccccc1-c1ncc2c(=O)[nH]c([C@@H]3CN(Cc4ncccn4)C[C@H]3C)nn12` (single isomer, unassigned) [(−)-2-((3,4-trans)-4-methyl-1-(pyrimidin-2-ylmethyl)pyrrolidin-3-yl)-7-(o-tolyl)imidazo[5,1-f][1,2,4]triazin-4(3H)-one], the IC50 was 1000 to 10000 nM.
For `C[C@@H]1CN(Cc2ncccn2)C[C@H]1c1nn2c(C3CCOCC3)ncc2c(=O)[nH]1` (single isomer, unassigned) [(−)-2-((3,4-trans)-4-methyl-1-(pyrimidin-2-ylmethyl)pyrrolidin-3-yl)-7-(tetrahydro-2H-pyran-4-yl)imidazo[5,1-f][1,2,4]triazin-4(3H)-one], the IC50 is greater than 10000 nM.
Still for that read-out and setting: in the case of `C[C@@H]1CN(Cc2ncc3ccccc3n2)C[C@H]1c1nn2c(C3CCOCC3)ncc2c(=O)[nH]1` (single isomer, unassigned) [(−)-2-((3,4-trans)-4-methyl-1-(quinazolin-2-ylmethyl)pyrroli] [(−)-2-((3,4-trans)-4-methyl-1-(quinazolin-2-ylmethyl)pyrrolidin-3-yl)-7-(tetrahydro-2H-pyran-4-yl)imidazo[5,1-f][1,2,4]triazin-4(3H)-one] it was less than 1000 nM; in that of `C[C@@H]1CN(Cc2ccc3ccccc3n2)C[C@H]1c1nn2c(C3CCOCC3)ncc2c(=O)[nH]1` (single isomer, unassigned) [(−)-2-((3,4-trans)-4-methyl-1-(quinolin-2-ylmethyl)pyrrolidi] [(−)-2-((3,4-trans)-4-methyl-1-(quinolin-2-ylmethyl)pyrrolidin-3-yl)-7-(tetrahydro-2H-pyran-4-yl)imidazo[5,1-f][1,2,4]triazin-4(3H)-one], less than 1000 nM.
Regarding `CCS(=O)(=O)N1CCC(c2ncc3c(=O)[nH]c([C@@H]4CN(Cc5ncccn5)C[C@H]4C)nn23)CC1` (single isomer, unassigned) [(−)-7-(1-(ethylsulfonyl)piperidin-4-yl)-2-((3,4-trans)-4-methyl-1-(pyrimidin-2-ylmethyl)pyrrolidin-3-yl)imidazo[5,1-f][1,2,4]triazin-4(3H)-one], the half-maximal inhibitory concentration (IC50) is greater than 10000 nM.
On to `CC(=O)N1CCC(c2ncc3c(=O)[nH]c([C@@H]4CN(Cc5ccccc5)C[C@H]4C)nn23)CC1` (single isomer, unassigned) [(−)-7-(1-acetylpiperidin-4-yl)-2-((3,4-trans)-1-benzyl-4-methylpyrrolidin-3-yl)imidazo[5,1-f][1,2,4]triazin-4(3H)-one], for which the IC50 is greater than 10000 nM.
Same read-out and setting: as for `CC(=O)N1CCC(c2ncc3c(=O)[nH]c([C@@H]4CN(Cc5ncccn5)C[C@H]4C)nn23)CC1` (single isomer, unassigned) [(−)-7-(1-acetylpiperidin-4-yl)-2-((3,4-trans)-4-methyl-1-(pyrimidin-2-ylmethyl)pyrrolidin-3-yl)imidazo[5,1-f][1,2,4]triazin-4(3H)-one], the figure is greater than 10000 nM.
As to `Cc1cc(F)ccc1-c1ncc2c(=O)[nH]c([C@@H]3CN(Cc4ncccn4)C[C@H]3C)nn12` (single isomer, unassigned) [(−)-7-(4-fluoro-2-methylphenyl)-2-((3,4-trans)-4-methyl-1-(pyrimidin-2-ylmethyl)pyrrolidin-3-yl)imidazo[5,1-f][1,2,4]triazin-4(3H)-one], the IC50 is less than 1000 nM.
Same read-out and setting: in the case of `CC1CN([C@@H](C)c2ccccc2)CC1c1nn2c(C3CCOCC3)ncc2c(=O)[nH]1` (single isomer, unassigned; (+)) it was less than 1000 nM; in that of `CC1CN(Cc2ccccc2)CC1c1nn2c(C34CC5CC(CC(C5)C3)C4)ncc2c(=O)[nH]1` (single isomer, unassigned; (+)), less than 1000 nM.
Same read-out and setting: as for `CC1CN(Cc2ncccn2)CC1c1nn2c(C34CC5CC(CC(C5)C3)C4)ncc2c(=O)[nH]1` (single isomer, unassigned; (+)), the figure is less than 1000 nM; as for `CC1CN([C@H](C)c2ccccc2)CC1c1nn2c(C3CCOCC3)ncc2c(=O)[nH]1` (single isomer, unassigned; (-)), less than 1000 nM; as for `CC1CN(Cc2ccccc2)CC1c1nn2c(C34CC5CC(CC(C5)C3)C4)ncc2c(=O)[nH]1` (single isomer, unassigned; (-)), greater than 10000 nM.

For another test, the target named is T2, PDE1A (Homo sapiens, UniProt P54750).
T2 construct: purchased Reaction Biology Corporation, Malvern, Pa
T2 sequence (P54750 whole entry): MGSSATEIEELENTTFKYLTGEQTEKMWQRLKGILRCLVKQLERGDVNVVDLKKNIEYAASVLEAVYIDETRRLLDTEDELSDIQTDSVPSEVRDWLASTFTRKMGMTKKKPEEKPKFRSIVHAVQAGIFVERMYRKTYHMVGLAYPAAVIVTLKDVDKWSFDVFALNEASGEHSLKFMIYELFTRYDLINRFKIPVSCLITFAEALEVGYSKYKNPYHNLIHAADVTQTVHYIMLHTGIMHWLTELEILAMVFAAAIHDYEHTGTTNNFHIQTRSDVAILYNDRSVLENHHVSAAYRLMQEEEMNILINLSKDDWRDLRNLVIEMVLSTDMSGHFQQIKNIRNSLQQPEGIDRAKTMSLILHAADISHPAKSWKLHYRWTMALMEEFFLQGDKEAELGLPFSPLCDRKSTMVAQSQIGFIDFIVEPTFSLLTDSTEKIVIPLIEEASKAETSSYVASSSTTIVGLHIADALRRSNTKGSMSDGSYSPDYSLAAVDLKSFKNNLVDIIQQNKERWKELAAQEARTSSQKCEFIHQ
Nature of the test: Phosphodiesterase Enzyme Screening Assay, PDE1A (selectivity versus PDE9A2). It counts as biochemical. Conditions: ratio of IC50 values; value greater than 1 indicates greater selectivity for PDE9A2.
From the text: as §1, §2, §3, §4, §5, §6, §7
For `CC1CN(Cc2ccccc2)CC1c1nn2c(C3CCCOC3)ncc2c(=O)[nH]1` (single isomer, unassigned) [2-((3,4-trans)-1-benzyl-4-methylpyrrolidin-3-yl)-7-(tetrahyd] [2-((3,4-trans)-1-benzyl-4-methylpyrrolidin-3-yl)-7-(tetrahydro-2H-pyran-3-yl)imidazo[5,1-f][1,2,4]triazin-4(3H)-one], the “PDE1A selectivity (versus PDE9A2)” value was 28.

The next test deals with T3, PDE1B (Homo sapiens, UniProt Q01064).
T3 construct: purchased Reaction Biology Corporation, Malvern, Pa
T3 sequence (Q01064 whole entry): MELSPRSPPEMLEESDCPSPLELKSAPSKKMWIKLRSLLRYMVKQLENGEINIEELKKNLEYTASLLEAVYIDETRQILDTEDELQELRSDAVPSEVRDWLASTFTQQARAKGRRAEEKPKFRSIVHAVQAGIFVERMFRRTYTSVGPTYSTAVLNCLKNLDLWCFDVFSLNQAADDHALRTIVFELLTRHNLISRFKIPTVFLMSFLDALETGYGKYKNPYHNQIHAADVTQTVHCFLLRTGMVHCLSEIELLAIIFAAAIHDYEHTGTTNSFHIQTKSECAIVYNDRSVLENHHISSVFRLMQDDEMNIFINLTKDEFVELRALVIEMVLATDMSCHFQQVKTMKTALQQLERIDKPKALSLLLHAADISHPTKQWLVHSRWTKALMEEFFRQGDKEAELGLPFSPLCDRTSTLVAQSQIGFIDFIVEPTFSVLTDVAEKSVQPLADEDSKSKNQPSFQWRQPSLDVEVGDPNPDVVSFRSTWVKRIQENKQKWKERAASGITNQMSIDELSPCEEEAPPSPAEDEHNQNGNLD
Kind of test: Phosphodiesterase Enzyme Screening Assay, PDE1B (selectivity versus PDE9A2). The class given is biochemical. Conditions: ratio of IC50 values; value greater than 1 indicates greater selectivity for PDE9A2.
From the text: as §1, §2, §3, §4, §5, §6, §7
For the molecule `CC1CN(Cc2ccccc2)CC1c1nn2c(C3CCCOC3)ncc2c(=O)[nH]1` (single isomer, unassigned) [2-((3,4-trans)-1-benzyl-4-methylpyrrolidin-3-yl)-7-(tetrahyd] [2-((3,4-trans)-1-benzyl-4-methylpyrrolidin-3-yl)-7-(tetrahydro-2H-pyran-3-yl)imidazo[5,1-f][1,2,4]triazin-4(3H)-one], the “PDE1B selectivity (versus PDE9A2)” value was found to be 38.
